Results: patent publication US20260130885A1, “ANTIMICROBIAL COMPOSITIONS, PHARMACEUTICAL COMPOSITIONS AND USE THEREOF” (priority 2022, published 2026)
Values after ≈ are worked out from the molar mass of the structure shown. Read-outs that look alike come from different tables or passages of the source.

Experiments:
[1] = tested on: S. aureus ATCC29213; assay: Antibacterial activity assay (MIC, broth microdilution); assay type: cell-based, Staphylococcus aureus; settings: for MIC: Staphylococcus aureus
[2] = tested on: MRSA ATCC33592; assay: as above; assay type: cell-based, Staphylococcus aureus; settings: for MIC: Staphylococcus aureus
[3] = tested on: MRSA ATCC49476; assay: as above; assay type: cell-based, Staphylococcus aureus; settings: for MIC: Staphylococcus aureus
[4] = Antiproliferation assay (MTT); assay type: cell-based, murine; settings: mouse, RAW264.7 macrophage cells, read-out: CC50 of SC5005
Experimental: (§1) FIG. 2: The biofilms of S. aureus NCTC8325 (the upper left graph) and MRSA USA300 (the upper right graph) were treated with increasing concentrations of blank control (Mock), DHA, daptomycin (DAP), vancomycin (VAN), SC5005, and SC5005 in combination with DHA for 24 hours. The number of viable bacteria was then determined using a cfu assay. The data represent individual experiments and are shown as the mean±SD (n=3 per group). ns, nonsignificant, p>0.05; *p<0.05; **p<0.01; ***p<0.001. (The lower left graph) the biofilms of MRSA USA300 were treated with blank control (Mock) or SC5005 along with 80 mg/L DHA for 1, 3 or 10 minute(s). The viable bacteria in the biofilms harvested and enumerated using a cfu assay. The data represent independent experiments and are shown as mean±SD (n=3 per group). ns, nonsignificant, p>0.05; *p<0.05; **p<0.01; ***p<0.001 (The lower right graph) RAW264.7 cells were exposed to a blank control (Mock) or increasing concentrations of SC5005 and 80 mg/L DHA for […]. The viability of cells was determined by the MTT assay and expressed as a percentage relative to mock (DMSO and ethanol)-treated cells. The data shown are the mean±SD (n=3 per group).
The murine macrophage cell line RAW264.7 (BCRC) and human cervical epithelioid carcinoma cell line HeLa (BCRC) were maintained in Dulbecco's modified Eagle's medium (DMEM; Gibco-BRL) supplemented with 10% heat-inactivated FBS (Gibco-BRL). The human embryonic kidney cell line HEK-293 (BCRC) and the immortalized nontumorigenic keratinocyte cell line HaCaT (obtained from Dr. Yung-Chiy Chang, National Taiwan University, Taiwan) were maintained in Roswell Park Memorial Institute (RPMI; Gibco-BRL) medium supplemented with 10% heat-inactivated FBS. Cells were cultured in T-75 flasks at 37° C. in a 5% CO2 atmosphere.
The effects of SC5005 and DHA on the viability of mammalian cells were assessed using a 3-(4,5-dimethylthiazol-2-yl)-2,5-diphenyl-2H-tetrazolium bromide (MTT) assay in six replicates per treatment group. Briefly, cells were seeded into 96-well, flat-bottomed plates at 10^4 cells/well, cultured for 24 hours, and then exposed to SC5005 at concentrations ranging from 5-30 mg/L or the combination of SC5005 with designated concentrations of DHA for 24 hours. Controls were treated with DMSO and ethanol vehicles at concentrations equal to those for drug-treated cells. At the end of treatments, the medium was replaced with 0.5 g/L MTT-containing culture medium, and the cells were incubated in a CO2 incubator at 37° C. for an additional 1.5 hours. Supernatants were removed from the wells, and the reduced MTT dye was solubilized in DMSO followed by measuring the absorbance at 570 nm of each well using a VersaMax microplate reader (Molecular Devices, USA).

[5] = tested on: Staphylococcus aureus NCTC8325; assay: Time-kill kinetics (cfu assay); assay type: cell-based; settings: SC5005 4×MIC, 1 mg/L; FIG. 1
Experimental: (§2) The number of viable bacteria in broth after each exposure period was enumerated by a cfu assay and expressed as cfu/mL; the data shown are the mean±SD (standard deviation) of independent experiments. […] The number of viable bacteria in the broth after each exposure period was calculated by a cfu assay (cfu/mL); the data are shown as the mean±SD of three independent experiments (n=3 for each group). Since the standard deviation of each point is very small, the error line is not shown in each graph. The horizontal dashed line in the upper left graph and the upper right graph represents […] of the bacterial cells killed. In addition, the blank controls in FIG. 1 are shown as filled diamonds.
(§3) In this experiment, the inventor analyzed the time-kill kinetics of SC5005, DHA, and a combination thereof against Staphylococcus aureus NCTC8325 and MRSA USA300, and the results are shown in FIG. 1. It can be seen in FIG. 1 that SC5005 killed more than 99.9% of the bacteria within 24 hours. […] Besides, it is well known in the art that Staphylococcus aureus can enter a dormant state (i.e., become the so-called persister cells) and develop resistance to antibiotic treatment, thus leading to repeated bacterial infections.

[6] = tested on: MRSA USA300; assay: Time-kill kinetics (cfu assay); assay type: cell-based, Staphylococcus aureus; settings: SC5005 4×MIC, 1 mg/L; FIG. 1
Experimental: as §2, §3

[7] = tested on: biofilms of MRSA USA300; assay: Biofilm eradication assay; assay type: cell-based, Staphylococcus aureus
Experimental: as §1
(§4) The eradication activity of daptomycin, vancomycin, experimental acyl compounds and experimental acyl compounds along with fatty acids against biofilms of microorganisms was evaluated as described above. Briefly, bacteria were grown in tryptic soy broth (Becton Dickinson, USA) and biofilms were formed on the pegs of the lid of a 96-well dish immersed in bacterial cultures at 5×10^5 cfu/mL. […] After incubation at 37° C. for 24 hours, the peg-lids were washed and placed onto a new 96-well plate with fresh CAMHB in each well and sonicated for 5 minutes to disrupt the biofilm on the pegs, followed by a cfu assay to assess the number of viable bacteria in each well. To determine the minimum biofilm removal concentration, the 96-well plates were covered with new lids and incubated at 37° C. for 24 hours, and then the viable bacteria in each well were counted using the cfu assay.

[8] = tested on: biofilms of S. aureus NCTC8325; assay: Biofilm eradication assay; assay type: cell-based, Staphylococcus aureus; settings: 24 hours; FIG. 2
Experimental: as §1, §4

## O=C(Nc1ccc(Cl)c(C(F)(F)F)c1)C(CCCl)C(=O)Nc1ccc(Cl)c(C(F)(F)F)c1 [SC5005]
[1]; MIC, +8 mg/L DHA
  combination effect: (Syn) (Synergy (Syn) was defined as an FICI≤0.5)
[1]; ATCC29213, +8 mg/L DHA
  MIC: 3.9 ng/mL (≈ 7.48 nM)
[1]; ATCC29213, agent alone
  MIC: 250 ng/mL (≈ 479 nM)
[2]; MIC, +8 mg/L DHA
  combination effect: (Syn) (Synergy (Syn) was defined as an FICI≤0.5)
[2]; +8 mg/L DHA
  MIC: 0.49 ng/mL (≈ 0.939 nM)
[2]; agent alone
  MIC: 250 ng/mL (≈ 479 nM)
[3]; MIC, +8 mg/L DHA
  combination effect: (Syn) (Synergy (Syn) was defined as an FICI≤0.5)
[3]; +8 mg/L DHA
  MIC: 0.00095 ng/mL (≈ 0.00182 nM)
[3]; agent alone
  MIC: 250 ng/mL (≈ 479 nM)
[4]; DHA 0 mg/L
  CC50 at 24 h: 19500 ± 600 ng/mL
[4]; DHA 4 mg/L
  CC50 at 24 h: 22600 ± 800 ng/mL
[4]; DHA 8 mg/L
  CC50 at 24 h: 19700 ± 2500 ng/mL
[4]; DHA 16 mg/L
  CC50 at 24 h: 21200 ± 2300 ng/mL
[5]
  bacteria killed within 24 hours: more than 99.9%
[6]
  bacteria killed within 24 hours: more than 99.9%
[7]; 24 hours, FIG. 2
  biofilm removing activity (in words): superior biofilm removing activity in comparison with daptomycin and vancomycin
[7]; DHA concentration 80 mg/L, strain not given
  increase of the biofilm removing activity of SC5005: 32 times
[8]
  biofilm removing activity (in words): superior biofilm removing activity in comparison with daptomycin and vancomycin
